Here are results for three compounds from ChEMBL document CHEMBL3822390, “Synthesis, characterization and anti-cancer activity of a peptide nucleolipid bioconjugate” (2016).

What all share (format): functional
Experiment [1] in a line: Cytotoxicity against human IGROV1 cells assessed as cell growth at 10 uM after 48 hrs by SRB assay. The conditions noted are these: IGROV-1, 48 h, read-out: Activity. For orientation: In SRB staining, fixed cells bind dye roughly in proportion to their protein.
The test system of experiment [2] is SR. The experiment can be described thus: Cytotoxicity against human SR cells assessed as cell growth at 10 uM after 48 hrs by SRB assay. Particulars: read-out: Activity.
Experiment [3] can be described thus: Cytotoxicity against human SNB19 cells assessed as cell growth at 10 uM after 48 hrs by SRB assay. The conditions noted are these: SNB-19, 48 h, read-out: Activity.
Experiment [4] is described as follows: Cytotoxicity against human SF268 cells assessed as cell growth at 10 uM after 48 hrs by SRB assay. The conditions noted are these: SF-268, 48 h, read-out: Activity.
For another experiment, the system named is ACHN. Briefly: Cytotoxicity against human ACHN cells assessed as cell growth at 10 uM after 48 hrs by SRB assay. Particulars: read-out: Activity.
A short description of experiment [5]: Cytotoxicity against human SNB75 cells assessed as cell growth at 10 uM after 48 hrs by SRB assay. Particulars: SNB-75, 48 h, read-out: Activity.
Experiment [6] in a line: Cytotoxicity against human OVCAR8 cells assessed as cell growth at 10 uM after 48 hrs by SRB assay. The conditions noted are these: OVCAR-8, 48 h, read-out: Activity.
Experiment [7] is described as follows: Cytotoxicity against human RXF393 cells assessed as cell growth at 10 uM after 48 hrs by SRB assay. The conditions noted are these: RXF 393, 48 h, read-out: Activity.
The nature of experiment [8]: Cytotoxicity against human SF295 cells assessed as cell growth at 10 uM after 48 hrs by SRB assay. The conditions noted are these: SF-295, 48 h, read-out: Activity.
Experiment [9] concerns M14. Briefly: Cytotoxicity against human M14 cells assessed as cell growth at 10 uM after 48 hrs by SRB assay. Particulars: M14, 48 h, read-out: Activity.
Experiment [10] relates to MDA-MB-435. Briefly: Cytotoxicity against human MDA-MB-435 cells assessed as cell growth at 10 uM after 48 hrs by SRB assay. Particulars: MDA-MB-435, 48 h, read-out: Activity.
In a further experiment the test system is SK-MEL-5. Briefly: Cytotoxicity against human SK-MEL-5 cells assessed as cell growth at 10 uM after 48 hrs by SRB assay. The conditions noted are these: SK-MEL-5, 48 h, read-out: Activity.
Another experiment deals with KM12. The experiment can be described thus: Cytotoxicity against human KM12 cells assessed as cell growth at 10 uM after 48 hrs by SRB assay. The conditions noted are these: KM12, 48 h, read-out: Activity.
Experiment [11] in a line: Cytotoxicity against human HCC2998 cells assessed as cell growth at 10 uM after 48 hrs by SRB assay. Particulars: HCC 2998, 48 h, read-out: Activity.
Experiment [12] is described as follows: Cytotoxicity against human UO31 cells assessed as cell growth at 10 uM after 48 hrs by SRB assay. Particulars: UO-31, 48 h, read-out: Activity.
Experiment [13] is described as follows: Cytotoxicity against human OVCAR5 cells assessed as cell growth at 7.25 uM after 48 hrs by SRB assay. The conditions noted are these: OVCAR-5, 48 h, read-out: Activity.
In a further experiment the test system is MDA-MB-231. The experiment can be described thus: Cytotoxicity against human MDA-MB-231 cells assessed as cell growth at 7.25 uM after 48 hrs by SRB assay. Particulars: MDA-MB-231, 48 h, read-out: Activity.
For the next experiment, the system named is U-251. Briefly: Cytotoxicity against human U251 cells assessed as cell growth at 7.25 uM after 48 hrs by SRB assay. Particulars: U-251, 48 h, read-out: Activity.
The subject of experiment [14] is NCI-H460. The experiment can be described thus: Cytotoxicity against human NCI-H460 cells assessed as cell growth at 7.25 uM after 48 hrs by SRB assay. The conditions noted are these: NCI-H460, 48 h, read-out: Activity.
In experiment [15] the test system is MDA-MB-435. Briefly: Cytotoxicity against human MDA-MB-435 cells assessed as cell growth at 7.25 uM after 48 hrs by SRB assay. The conditions noted are these: MDA-MB-435, 48 h, read-out: Activity.
The nature of experiment [16]: Cytotoxicity against human NCI-ADR-RES cells assessed as cell growth at 7.25 uM after 48 hrs by SRB assay. Particulars: read-out: Activity.
For a further experiment, the system named is SK-MEL-2. Briefly: Cytotoxicity against human SK-MEL-2 cells assessed as cell growth at 7.25 uM after 48 hrs by SRB assay. The conditions noted are these: SK-MEL-2, 48 h, read-out: Activity.
Experiment [17] can be described thus: Cytotoxicity against human TK10 cells assessed as cell growth at 7.25 uM after 48 hrs by SRB assay. Particulars: TK-10, 48 h, read-out: Activity.
Experiment [18] can be described thus: Cytotoxicity against human SW620 cells assessed as cell growth at 7.25 uM after 48 hrs by SRB assay. Particulars: SW-620, 48 h, read-out: Activity.
Experiment [19] deals with HT-29. Briefly: Cytotoxicity against human HT-29 cells assessed as cell growth at 7.25 uM after 48 hrs by SRB assay. The conditions noted are these: HT-29, 48 h, read-out: Activity.
A short description of experiment [20]: Cytotoxicity against human SF539 cells assessed as cell growth at 7.25 uM after 48 hrs by SRB assay. Particulars: SF-539, 48 h, read-out: Activity.
In experiment [21] the test system is A549. Briefly: Cytotoxicity against human A549 cells assessed as cell mortality at 7.25 uM after 48 hrs by SRB assay. The conditions noted are these: A549, 48 h.
The subject of experiment [22] is A549. The experiment can be described thus: Cytotoxicity against human A549 cells assessed as cell growth at 7.25 uM after 48 hrs by SRB assay. The conditions noted are these: A549, 48 h, read-out: Activity.
The test system of a further experiment is CCRF-CEM. Briefly: Cytotoxicity against human CCRF-CEM cells assessed as cell growth at 2.13 uM after 48 hrs by SRB assay. Particulars: read-out: Activity.
A further experiment relates to NCI-H522. The experiment can be described thus: Cytotoxicity against human NCI-H522 cells assessed as cell growth at 2.13 uM after 48 hrs by SRB assay. The conditions noted are these: NCI-H522, 48 h, read-out: Activity.
The test system of experiment [23] is HT-29. The experiment can be described thus: Cytotoxicity against human HT-29 cells assessed as cell growth at 2.13 uM after 48 hrs by SRB assay. The conditions noted are these: HT-29, 48 h, read-out: Activity.
Experiment [24] can be described thus: Cytotoxicity against human SF268 cells assessed as cell growth at 2.13 uM after 48 hrs by SRB assay. The conditions noted are these: SF-268, 48 h, read-out: Activity.
The test system of the next experiment is K562. Briefly: Cytotoxicity against human K562 cells assessed as cell growth at 2.13 uM after 48 hrs by SRB assay. The conditions noted are these: K562, 48 h, read-out: Activity.
Experiment [25] is described as follows: Cytotoxicity against human HL-60(TB) cells assessed as cell growth at 2.13 uM after 48 hrs by SRB assay. The conditions noted are these: HL-60, 48 h, read-out: Activity.
For the next experiment, the system named is SK-MEL-28. Briefly: Cytotoxicity against human SK-MEL-28 cells assessed as cell growth at 2.13 uM after 48 hrs by SRB assay. Particulars: SK-MEL-28, 48 h, read-out: Activity.
The test system of the next experiment is T47D. Briefly: Cytotoxicity against human T47D cells assessed as cell growth at 2.13 uM after 48 hrs by SRB assay. Particulars: read-out: Activity.
Experiment [26] concerns SR. The experiment can be described thus: Cytotoxicity against human SR cells assessed as cell growth at 2.13 uM after 48 hrs by SRB assay. The conditions noted are these: read-out: Activity.
Experiment [27] deals with NCI-H460. The experiment can be described thus: Cytotoxicity against human NCI-H460 cells assessed as cell growth at 2.13 uM after 48 hrs by SRB assay. The conditions noted are these: NCI-H460, 48 h, read-out: Activity.
The next experiment relates to NCI-H226. The experiment can be described thus: Cytotoxicity against human NCI-H226 cells assessed as cell mortality at 2.13 uM after 48 hrs by SRB assay. The conditions noted are these: NCI-H226, 48 h.
Experiment [28] concerns M14. Briefly: Cytotoxicity against human M14 cells assessed as cell growth at 2.13 uM after 48 hrs by SRB assay. The conditions noted are these: M14, 48 h, read-out: Activity.

SMILES strings stand for the structures.

On to `CC(C)C[C@H](NC(=O)[C@H](CCCCN)NC(=O)[C@H](C)NC(=O)[C@H](CC(C)C)NC(=O)[C@H](CCCCN)NC(=O)[C@H](CCCCN)NC(=O)[C@H](C)NC(=O)[C@H](CC(C)C)NC(=O)[C@H](CCCCN)NC(=O)[C@H](C)NC(=O)[C@H](CC(C)C)NC(=O)[C@H](CCCCN)NC(=O)[C@@H](N)CC(=O)O)C(=O)N[C@@H](C)C(=O)N[C@@H](CCCCN)C(=O)N[C@@H](C)C(=O)N[C@@H](CCCCN)C(N)=O`, for which the growth at 10 µM in [1] is 107%; in the experiment on SR [2], 85%; in experiment [3], 106%; in [4] it was 94.7%; with ACHN, 107%; in experiment [5], 98.8%. The growth at 10 µM came to 101% in experiment [6]; 110% in [7]; 103% in experiment [8]; 108% with M14 [9]; 108% with MDA-MB-435 [10]; 101% with SK-MEL-5. For the same compound, the results for the growth at 10 µM (in the experiment on KM12; in experiment [11]; in experiment [12]) were 103%, 100% and 98%, respectively.

A word on the mortality: it is the percentage killed. Take `CCCCCCCCCCCCCCCC(=O)NCCCC[C@H](NC(=O)[C@H](C)NC(=O)[C@H](CCCCN)NC(=O)[C@H](C)NC(=O)[C@H](CC(C)C)NC(=O)[C@H](CCCCN)NC(=O)[C@H](C)NC(=O)[C@H](CC(C)C)NC(=O)[C@H](CCCCN)NC(=O)[C@H](CCCCN)NC(=O)[C@H](C)NC(=O)[C@H](CC(C)C)NC(=O)[C@H](CCCCN)NC(=O)[C@H](C)NC(=O)[C@H](CC(C)C)NC(=O)[C@H](CCCCN)NC(=O)[C@@H](N)CC(=O)O)C(N)=O`: the growth at 7.25 µM in [13] amounted to 105%; in the experiment with MDA-MB-231 it was 104%; in the experiment on U-251 it was 91.3%; in the experiment on NCI-H460 [14] it was 107%; with MDA-MB-435 [15], 113%; in experiment [16] it was 111%. Besides, the growth at 7.25 µM was found to be 93.1% in the experiment on SK-MEL-2; 92.1% in [17]; 107% in experiment [18]; 92.4% in the experiment with HT-29 [19]; 102% in experiment [20]; 67.6% in the experiment on A549 [22]. Also, the mortality at 7.25 µM in the experiment on A549 [21] was 32%.

As for `CCCCCCCCCCCCCCCCNCCO[C@H]1C[C@H](n2cc(C)c(=O)[nH]c2=O)O[C@@H]1C(=O)NCCCC[C@H](NC(=O)[C@H](C)NC(=O)[C@H](CCCCN)NC(=O)[C@H](C)NC(=O)[C@H](CC(C)C)NC(=O)[C@H](CCCCN)NC(=O)[C@H](C)NC(=O)[C@H](CC(C)C)NC(=O)[C@H](CCCCN)NC(=O)[C@H](CCCCN)NC(=O)[C@H](C)NC(=O)[C@H](CC(C)C)NC(=O)[C@H](CCCCN)NC(=O)[C@H](C)NC(=O)[C@H](CC(C)C)NC(=O)[C@H](CCCCN)NC(=O)[C@@H](N)CC(=O)O)C(N)=O`, the growth at 2.13 µM came out at 108% in the experiment on CCRF-CEM; 88.8% in the experiment on NCI-H522; 102% in the experiment on HT-29 [23]; 100% in [24]; 106% in the experiment with K562; 93.8% in [25]. Also, the growth at 2.13 µM in the experiment with SK-MEL-28 was found to be 102%; in the experiment on T47D, 91.6%; in the experiment with SR [26], 96.6%; in the experiment on NCI-H460 [27] it was 109%; with M14 [28], 98.5%. Also, the mortality at 2.13 µM with NCI-H226 amounted to 4%.
